Laboratory results: patent US20150272939A1, “Identification of Small Molecule Inhibitors of Jumonji AT-Rich Interactive Domain 1A (JARID1A) and 1B (JARID1B) Histone Demethylase” (Yale University, priority 2012, published 2015)
Where a name gives a salt, the structure may show the parent alone. Read-outs that look alike come from different tables or passages of the source.

What was measured:
[1] = AlphaScreen counterscreen against bio-H3K4me2 peptide in the absence of enzyme (artifact signal); details: for Artifact Signal (percent): effect of the compound when incubated with bio-H3K4me2 peptide (counterscreen, no enzyme); for Artifact signal: effect of the compound when it is incubated with bio-H3K4me2 peptide: counterscreen, no enzyme;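 for all read-outs here: counterscreen run without enzyme against bio-H3K4me2 peptide to remove false positive hits from the JARID1 demethylase AlphaScreen screen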
[2] = molecular target: T1, JARID1B (Homo sapiens, UniProt Q9UGL1); assay: FLAG-JARID1B histone demethylase assay with AlphaScreen detection (HTS and dose response); format: biochemical; details: for Assay − Artifact Signal (percent): assay signal minus artifact signal; for inhibition at 20 µM / Inhibitory effect (percent): high-throughput screen, compound 20 μM; for inhibition at 20 µM: read-out: Inhibitory effect (percent); for Assay Signal (percent) / Validation result of HTS active: effect of the compound in the JARID1B AlphaScreen demethylase assay: validation of HTS actives; for Assay Signal (percent): effect of compound in JARID1B AlphaScreen assay; for Validation result of HTS active: effect of the compound in the JARID1B AlphaScreen demethylase assay: total signal before subtraction of artifact signal;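 for Assay Signal (percent): compound tested at 20 µM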;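 for Assay − Artifact Signal (percent): compound tested at 20 µM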;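 for all read-outs here: FLAG-tagged JARID1B at 4 nM acting on a biotinylated H3K4me3 peptide, demethylation read by AlphaScreen luminescence, with hits checked against bio-H3K4me2 without enzyme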
T1 construct: The FLAG tagged full length JARID1B enzyme was expressed in Sf21 insect cells using FLAG-JARID1B baculoviruses; FLAG (N); made in house; host or cells: Sf21 insect cells (baculovirus)
T1 sequence (Q9UGL1 whole entry): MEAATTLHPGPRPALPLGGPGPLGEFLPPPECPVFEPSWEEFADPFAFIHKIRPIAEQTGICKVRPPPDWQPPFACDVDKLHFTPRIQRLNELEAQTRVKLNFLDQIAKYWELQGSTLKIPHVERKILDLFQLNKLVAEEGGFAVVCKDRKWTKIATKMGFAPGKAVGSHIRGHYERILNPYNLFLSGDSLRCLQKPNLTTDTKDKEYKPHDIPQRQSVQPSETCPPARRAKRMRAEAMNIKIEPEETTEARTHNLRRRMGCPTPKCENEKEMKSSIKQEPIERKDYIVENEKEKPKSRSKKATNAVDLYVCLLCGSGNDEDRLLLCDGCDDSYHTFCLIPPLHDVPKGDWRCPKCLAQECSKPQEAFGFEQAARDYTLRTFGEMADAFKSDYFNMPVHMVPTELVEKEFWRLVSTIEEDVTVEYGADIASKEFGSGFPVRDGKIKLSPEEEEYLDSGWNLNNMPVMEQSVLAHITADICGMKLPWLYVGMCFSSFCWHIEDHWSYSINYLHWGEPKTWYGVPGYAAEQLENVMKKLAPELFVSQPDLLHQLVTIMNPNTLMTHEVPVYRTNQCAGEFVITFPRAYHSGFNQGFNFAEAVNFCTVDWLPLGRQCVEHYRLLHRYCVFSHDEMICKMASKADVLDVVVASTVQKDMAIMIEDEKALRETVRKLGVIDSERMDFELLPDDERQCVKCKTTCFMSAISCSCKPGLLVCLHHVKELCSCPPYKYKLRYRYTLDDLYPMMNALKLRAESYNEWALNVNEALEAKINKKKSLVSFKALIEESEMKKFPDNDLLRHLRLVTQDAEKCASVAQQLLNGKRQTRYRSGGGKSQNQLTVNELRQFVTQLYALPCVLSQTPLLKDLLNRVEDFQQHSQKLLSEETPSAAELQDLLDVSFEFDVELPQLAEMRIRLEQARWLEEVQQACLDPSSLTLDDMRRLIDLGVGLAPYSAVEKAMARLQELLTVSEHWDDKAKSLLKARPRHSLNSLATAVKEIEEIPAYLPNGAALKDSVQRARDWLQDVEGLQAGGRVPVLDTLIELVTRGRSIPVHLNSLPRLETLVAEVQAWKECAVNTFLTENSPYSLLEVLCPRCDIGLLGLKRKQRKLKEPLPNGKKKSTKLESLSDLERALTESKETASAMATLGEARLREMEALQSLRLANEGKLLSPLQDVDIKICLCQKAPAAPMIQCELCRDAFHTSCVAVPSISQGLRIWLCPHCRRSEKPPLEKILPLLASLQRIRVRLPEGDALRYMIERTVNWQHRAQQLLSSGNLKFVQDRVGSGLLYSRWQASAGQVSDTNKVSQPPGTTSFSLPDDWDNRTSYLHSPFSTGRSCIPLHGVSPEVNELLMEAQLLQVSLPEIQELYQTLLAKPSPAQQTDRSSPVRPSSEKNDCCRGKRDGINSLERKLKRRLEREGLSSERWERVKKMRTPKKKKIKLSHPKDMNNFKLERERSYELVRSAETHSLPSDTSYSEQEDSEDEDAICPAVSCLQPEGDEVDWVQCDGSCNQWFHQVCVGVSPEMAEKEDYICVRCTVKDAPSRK

[3] = standard demethylase conditions (10 μM α-KG, 50 μM Fe (II))
[4] = IDs marked *: additional hits under reaction condition with 1 mM α-KG

SMILES	Artifact Signal (percent) [1] [%]	Assay − Artifact Signal (percent) [2] [%]	inhibition at 20 µM [2, 3] [%]	Assay Signal (percent) [2] [%]	Artifact signal: effect of the compound when it is incubated with bio-H3K4me2 peptide [1]	Validation result of HTS active: effect of the compound in the JARID1B AlphaScreen demethylase assay [2]	inhibition at 20 µM [2, 4] [%]	Inhibitory effect (percent) [2, 3] [%]
N#CC(=Cc1cc(O)c(O)c(O)c1)C(N)=C(C#N)C#N (single isomer, unassigned) [YU154835, TYRPHOSTIN 51, reference compound]	23.01	23.04	69.7	46.05				
Cc1ccc(S(=O)(=O)C=CC#N)cc1 (single isomer, unassigned) [YU154885, BAY 11-7082, reference compound]	−5.88	41.45	43.6	35.57				
COC1=CC(=O)C(O)=CC1=CC=Cc1ccccc1 (single isomer, unassigned) [YU155007, OBTUSAQUINONE, reference compound]	7.90	43.75	48.7	51.64				
O=C(O)C=Cc1ccc(O)c(O)c1 (single isomer, unassigned) [YU155280, CAFFEIC ACID, reference compound]	−1.92		67.3					
C=NC(C(=O)N[C@H]1C(=O)N2C1SC(C)(C)C2C(=O)O)c1ccccc1 (stereo in doubt) [YU034263, METAMPICILLIN SODIUM, reference compound]	0.13	24.14	95.6	24.27	0.44	3.14		
O=C(OC[C@H]1O[C@@H](OC(=O)c2cc(O)c(O)c(OC(=O)c3cc(O)c(O)c(O)c3)c2)[C@H](OC(=O)c2cc(O)c(O)c(OC(=O)c3cc(O)c(O)c(O)c3)c2)[C@@H](OC(=O)c2cc(O)c(O)c(OC(=O)c3cc(O)c(O)c(O)c3)c2)[C@@H]1OC(=O)c1cc(O)c(O)c(OC(=O)c2cc(O)c(O)c(O)c2)c1)c1cc(O)c(O)c(OC(=O)c2cc(O)c(O)c(O)c2)c1 (stereo in doubt) [YU034398, TANNIC ACID, reference compound]			105		99.54	104.83		
COc1cccc2c1C(=O)c1c(O)c3c(c(O)c1C2=O)C[C@@](O)(C(=O)CO)C[C@@H]3O[C@H]1C[C@H](N)[C@@H](O)[C@H](C)O1.Cl (stereo in doubt) [YU039604, EPIRUBICIN HYDROCHLORIDE, reference compound]			81.9		3.76	10.74		
COc1cccc2c1C(=O)c1c(O)c3c(c(O)c1C2=O)C[C@@](O)(C(=O)CO)C[C@@H]3O[C@H]1C[C@H](N)[C@H](O)[C@H](C)O1.Cl (stereo in doubt) [YU039629, DOXORUBICIN HYDROCHLORIDE, reference compound]			80.3		3.92	8.94		
CC(=O)[C@]1(O)Cc2c(O)c3c(c(O)c2[C@@H](O[C@H]2C[C@H](N)[C@H](O)[C@H](C)O2)C1)C(=O)c1ccccc1C3=O.Cl (stereo in doubt) [YU040321, IDARUBICIN HCl, reference compound]			92.3		−9.53	−11.32		
O=C(OC[C@H]1O[C@@H](OC(=O)c2cc(O)c(O)c(OC(=O)c3cc(O)c(O)c(O)c3)c2)[C@H](OC(=O)c2cc(O)c(O)c(OC(=O)c3cc(O)c(O)c(O)c3)c2)[C@@H](OC(=O)c2cc(O)c(O)c(OC(=O)c3cc(O)c(O)c(O)c3)c2)[C@@H]1OC(=O)c1cc(O)c(O)c(OC(=O)c2cc(O)c(O)c(O)c2)c1)c1cc(O)c(O)c(OC(=O)c2cc(O)c(O)c(O)c2)c1 (stereo in doubt) [YU153507, TANNIC ACID, reference compound]					99.80	105.15		
O=C(O[C@@H]1Cc2c(O)cc(O)cc2O[C@@H]1c1cc(O)c(O)c(O)c1-c1c([C@H]2Oc3cc(O)cc(O)c3C[C@H]2OC(=O)c2cc(O)c(O)c(O)c2)cc(O)c(O)c1O)c1cc(O)c(O)c(O)c1 (stereo in doubt) [YU155084, 2,2-BISEPIGALLO- CATECHIN DIGALLATE, reference compound]			102		91.60	98.89		
CN[C@@H]1[C@H](O[C@H]2O[C@H](CO)[C@@H](N)[C@H](O)[C@H]2O)O[C@H]2C[C@@H](N)[C@H](O[C@@H]3[C@H](O)[C@@H](O)[C@H](N)C[C@@H]3N)O[C@@H]2[C@@H]1O (stereo in doubt) [YU155086, APRAMYCIN, reference compound]					−4.67	−19.45	43.2	
O=C(O[C@@H]1Cc2c(O)cc(O)cc2O[C@@H]1c1cc(O)c(=O)c2c(O)c(O)cc([C@H]3Oc4cc(O)cc(O)c4C[C@H]3OC(=O)c3cc(O)c(O)c(O)c3)c2c1)c1cc(O)c(O)c(O)c1 (stereo in doubt) [YU155100, THEAFLAVIN DIGALLATE, reference compound]			105		98.76	104.28		
O=C(O)c1cc(O)c2c(c1)[C@@H]([C@H]1c3cc(C(=O)O)cc(O)c3C(=O)c3c(O[C@H]4O[C@H](CO)[C@@H](O)[C@H](O)[C@H]4O)cccc31)c1cccc(O[C@H]3O[C@H](CO)[C@@H](O)[C@H](O)[C@H]3O)c1C2=O (stereo in doubt) [YU155201, SENNOSIDE A, reference compound]			60		68.65	72.27		
O=C(O)c1cc(O)c2c(c1)[C@H]([C@H]1c3cc(C(=O)O)cc(O)c3C(=O)c3c(O[C@@H]4O[C@H](CO)[C@H](O)[C@H](O)[C@H]4O)cccc31)c1cccc(O[C@@H]3O[C@H](CO)[C@H](O)[C@H](O)[C@@H]3O)c1C2=O (stereo in doubt) [YU155305, SENNOSIDE B, reference compound]			105		−0.34	4.04		
O=C(O)CC(CC(=O)Nc1cc(C(F)(F)F)ccc1N1CCOCC1)c1ccccc1 (centres unmarked) [YU016748]	11.20	8.43	104	19.64				
NS(=O)(=O)c1cccc(NC(=O)c2cccnc2Oc2ccccc2)c1 [YU016812]			34.2		13.27	10.22		
O=C1c2ccccc2C(=O)c2c(NCCc3ccc(O)cc3)ccc(NCCc3ccc(O)cc3)c21 [YU019467, BML-266, reference compound]	55.18	20.91		76.09			42.1	
CC(C)=CCc1c2c(c3occ(-c4ccc(O)c(O)c4)c(=O)c3c1O)C=CC(C)(C)O2 [YU033628, POMIFERIN, reference compound]					13.55	6.60		68.25
Oc1cc(O)c2c(c1)O[C@H](c1ccc(O)c(O)c1)[C@@H](O)C2 [YU033631, CIANIDANOL, reference compound]	4.84	26.12		30.96			41.5	
C[C@@H]1O[C@@H](OC[C@H]2OC(OC3=C(c4ccc(O)c(O)c4)Oc4cc(O)cc(O)c4C3O)[C@H](O)[C@@H](O)[C@@H]2O)[C@H](O)[C@H](O)[C@H]1O (some centres unmarked) [YU033654, RUTOSIDE (rutin), reference compound]	5.37	52.71	65.8	58.08				
C[n+]1cc2c3c(ccc2c2ccc4cc5c(cc4c21)OCO5)OCO3 [YU033662, SANGUINARINE SULFATE, reference compound]	9.21	58.64		67.85				86.66
O=C1c2c(O)cccc2Cc2cccc(O)c21 [YU033694, ANTHRALIN, reference compound]	9.35	13.30		22.65			51.7	
CN1CCc2cccc3c2C1Cc1ccc(O)c(O)c1-3 (centres unmarked) [YU033696, APOMORPHINE HYDROCHLORIDE, reference compound]	8.29	58.49	89.4	66.78				
Cn1cnc([N+](=O)[O-])c1Sc1[nH]cnc2ncnc1-2 [YU033698, AZATHIOPRINE, reference compound]			88.8		5.31	10.40		
